Data taken from US20200239530A1, “COMPOUNDS AND METHODS OF MODULATING PROTEIN DEGRADATION” (Vividion Therapeutics, Inc., priority 2017, published 2020).

Columns and labels:
[1] = target: T1, UNC93B1 Protein unc-93 homolog B1 (Homo sapiens, UniProt Q9H1C4); test: Cysteine liganding, probe competition; type: binding
T1 construct: Cells were resuspended in cold PBS on ice and sonicated with a probe sonicator to achieve lysis; endogenous in cells
T1 sequence (Q9H1C4 1-597): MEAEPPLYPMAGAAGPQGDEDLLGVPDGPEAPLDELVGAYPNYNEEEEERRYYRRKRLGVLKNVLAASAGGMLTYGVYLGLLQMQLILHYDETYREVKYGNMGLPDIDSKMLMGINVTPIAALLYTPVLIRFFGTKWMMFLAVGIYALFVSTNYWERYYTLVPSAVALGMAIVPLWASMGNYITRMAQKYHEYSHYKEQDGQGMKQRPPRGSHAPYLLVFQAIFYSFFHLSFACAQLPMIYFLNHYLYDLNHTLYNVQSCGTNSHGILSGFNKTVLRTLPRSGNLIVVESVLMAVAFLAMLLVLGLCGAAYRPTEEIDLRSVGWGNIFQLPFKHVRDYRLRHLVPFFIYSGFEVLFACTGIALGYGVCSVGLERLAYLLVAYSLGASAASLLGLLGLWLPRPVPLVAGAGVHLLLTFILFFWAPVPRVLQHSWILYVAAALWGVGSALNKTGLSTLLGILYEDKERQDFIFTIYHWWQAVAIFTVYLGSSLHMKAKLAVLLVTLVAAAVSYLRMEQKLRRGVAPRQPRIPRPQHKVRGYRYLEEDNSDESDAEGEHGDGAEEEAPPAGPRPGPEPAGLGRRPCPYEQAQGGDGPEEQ
Outline: (§1)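 Read-out is loss of desthiobiotin iodoacetamide labelling at cysteines, measured on streptavidin-enriched tryptic peptides. Compound preincubation ran 1 hr at 25° C in PBS lysate holding 5 mg/ml proteome before the probe was added.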

[2] = target: T2, GOLGA2 Golgin subfamily A member 2 (Homo sapiens, UniProt Q08379); test: Cysteine liganding, probe competition; type: binding
T2 construct: Cells were resuspended in cold PBS on ice and sonicated with a probe sonicator to achieve lysis; endogenous in cells
T2 sequence (Q08379 1-1002): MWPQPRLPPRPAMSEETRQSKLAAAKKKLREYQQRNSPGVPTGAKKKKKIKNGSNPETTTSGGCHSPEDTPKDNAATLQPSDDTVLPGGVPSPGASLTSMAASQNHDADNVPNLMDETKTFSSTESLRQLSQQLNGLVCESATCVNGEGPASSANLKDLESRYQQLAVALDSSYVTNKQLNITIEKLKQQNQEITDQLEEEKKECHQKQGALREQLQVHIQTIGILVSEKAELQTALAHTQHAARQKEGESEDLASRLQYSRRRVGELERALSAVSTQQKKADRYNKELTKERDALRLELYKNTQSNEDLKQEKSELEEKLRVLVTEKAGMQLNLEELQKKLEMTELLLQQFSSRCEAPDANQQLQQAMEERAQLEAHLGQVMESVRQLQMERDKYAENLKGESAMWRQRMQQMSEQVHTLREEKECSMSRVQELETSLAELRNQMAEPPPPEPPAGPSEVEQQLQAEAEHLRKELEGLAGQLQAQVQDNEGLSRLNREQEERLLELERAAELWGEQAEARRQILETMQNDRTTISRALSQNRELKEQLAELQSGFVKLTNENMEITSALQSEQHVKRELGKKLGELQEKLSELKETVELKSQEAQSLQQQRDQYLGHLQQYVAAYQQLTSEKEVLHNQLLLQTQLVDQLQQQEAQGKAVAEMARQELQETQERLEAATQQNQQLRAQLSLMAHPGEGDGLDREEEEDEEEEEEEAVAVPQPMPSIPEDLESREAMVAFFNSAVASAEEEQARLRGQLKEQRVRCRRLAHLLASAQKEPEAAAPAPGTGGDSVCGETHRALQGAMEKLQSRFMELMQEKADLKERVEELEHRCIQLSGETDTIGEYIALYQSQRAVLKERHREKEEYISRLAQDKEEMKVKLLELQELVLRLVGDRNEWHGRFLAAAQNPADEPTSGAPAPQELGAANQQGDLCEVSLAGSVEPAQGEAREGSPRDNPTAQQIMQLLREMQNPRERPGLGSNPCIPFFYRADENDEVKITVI
Outline: as §1

SMILES | 100 Max ([1]; uniprot Q9H1C4) | 100 ave ([1]; uniprot Q9H1C4) | 500 ave ([1]; uniprot Q9H1C4) | 500 Max ([1]; uniprot Q9H1C4, in % (unit assumed)) | 100 Max ([2]; uniprot Q08379) | 100 ave ([2]; uniprot Q08379) | 500 Max ([2]; uniprot Q08379) | 500 ave ([2]; uniprot Q08379) | Liganded ([1]; UNC93B1 Res# 583, uniprot Q9H1C4) | Liganded ([2]; GOLGA2 Res# 794, uniprot Q08379)
O=C(CCl)Nc1cc(C(F)(F)F)cc(C(F)(F)F)c1 [KBO3] | 29.9385 | 13 | 70.38 | 72.3195 | 1.85 | 1.85 | 54.38 | 54.38 | – | –
COc1ccc2c(c1)CCCN2C(=O)CCl [KB02] | – | – | – | – | – | – | – | – | YES | YES
